Measured values from US5552444A, “Ring-substituted 2-amino-1,2,3,4-tetra-hydronaphthalenes, 3-aminochromanes, and 3-aminothiochromanes” (Eli Lilly and Company, priority 1995, dated 1996).
Structures can show the parent of a compound that is named as a salt. Where two headings read alike, the source gives them in different places.

Target: T1, 5-HT1A receptor (Rattus norvegicus, UniProt P19327)
T1 construct: synaptosomal membranes isolated from cerebral cortex; from tissue; host or cells: rat cerebral cortex, crude synaptosomal membranes (male Sprague-Dawley rats, Harlan Industries)
T1 sequence (P19327 1-422): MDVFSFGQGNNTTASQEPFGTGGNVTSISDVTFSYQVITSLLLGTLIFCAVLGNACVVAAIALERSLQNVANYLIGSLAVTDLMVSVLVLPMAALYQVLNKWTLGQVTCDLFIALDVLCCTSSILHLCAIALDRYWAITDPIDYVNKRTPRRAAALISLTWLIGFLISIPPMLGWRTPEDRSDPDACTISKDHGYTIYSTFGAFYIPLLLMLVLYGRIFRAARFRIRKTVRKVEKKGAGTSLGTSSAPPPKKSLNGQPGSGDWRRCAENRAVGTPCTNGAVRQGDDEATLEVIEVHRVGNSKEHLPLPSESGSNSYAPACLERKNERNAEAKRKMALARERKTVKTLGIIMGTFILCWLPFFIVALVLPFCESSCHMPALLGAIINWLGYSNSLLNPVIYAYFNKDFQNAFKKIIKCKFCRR
Experiment: Inhibition of 3H-8-OH-DPAT binding to rat cerebral cortex synaptosomal membranes (binding at 5HT1a in vitro)
Set-up: species or system rat (male Sprague-Dawley)
Method: This general procedure is set forth in Wong et al., J. Neural Transm. 71:207-218 (1988).
Male Sprague-Dawley rats (110-150 g) from Harlan Industries (Cumberland, Ind.) were fed a Purina Chow ad libitum for at least 3 days before being used in the studies. Rats were killed by decapitation. The brains were rapidly removed, and the cerebral cortices were dissected out at 4° C.
Brain tissues were homogenized in 0.32M sucrose. After centrifugation at 1000×g for 10 min and then at 17000×g for 20 min, a crude synaptosomal fraction was sedimented. The pellet was suspended in 100 vol of 50 mM Tris-HCl, pH 7.4, incubated at 37° C. for 10 min, and centrifuged at 50000×g for 10 min. The process was repeated and the final pellet was suspended in ice-chilled 50 mM Tris-HCl, pH 7.4. By the radioligand binding method, sites specifically labeled by tritiated 8-hydroxy-2-dipropylamino-1,2,3,4-tetrahydronaphthalene (^3 H-8-OH-DPAT) have been identified as 5-HT1A receptors.
Binding of (^3 H-8-OH-DPAT) was performed according to the previously described method [Wong et al., J. Neural Transm. 64:251-269 (1985)]. Briefly, synaptosomal membranes isolated from cerebral cortex were incubated at 37° C. for 10 min. in 2 ml of 50 mM Tris-HCl, pH 7.4; 10 μM pargyline; 0.6 mM ascorbic acid; 0.4 nM ^3 H-8-OH-DPAT; and from 1 to 1000 nM of test compound. Binding was terminated by filtering samples under reduced pressure through glass fiber (GFB) filters. The filters were washed twice with 5 ml of ice cold buffer and placed in scintillation vials with 10 ml of PCS (Amersham/Searle) scintillation fluid. Radioactivity was measured with a liquid scintillation spectrometer. Unlabeled 8-OH-DPAT at 10 μM was also included in separate samples to establish non-specific binding. Specific binding of ^3 H-8-OH-DPAT is defined as the difference of radioactivity bound in the absence and in the presence of 10 μM unlabeled 8-OH-DPAT.

[1] = rat cerebral cortex membranes, 0.4 nM 3H-8-OH-DPAT, 37° C., 10 min, pH 7.4, read-out: IC50, concentration of test compound required to inhibit the binding of 3H-8-OH-DPAT by 50%

Compound	IC50 [1] [nM]	IC50 [nM]
CCCN(CCC)C1CCc2cccc(C(=O)C(C)C)c2C1 (stereo not drawn) [Example 5, 2-Di-n-propylamino-8-(α-methylpropionyl)-1,2,3,4-tetrahydronaphthalene, hydrobromide salt]	0.4	–
CCCN(CCC)C1CCc2cccc(C(=O)c3ccccc3F)c2C1 (stereo not drawn) [Example 11, 2-Di-n-propylamino-8-(o-fluorobenzoyl)-1,2,3,4-tetrahydronaphthalene, p-toluenesulfonic acid salt]	0.8	–
CCCN(CCC)C1CCc2cccc(C(=O)CC)c2C1 (stereo not drawn) [Example 3, 2-Di-n-propylamino-8-propionyl-1,2,3,4-tetrahydronaphthalene, oxalate salt]	0.8	–
CCCC(=O)c1cccc2c1CC(N(CCC)CCC)CC2 (stereo not drawn) [Example 4, 2-Di-n-propylamino-8-butanoyl-1,2,3,4-tetrahydronaphthalene,hydrobromide salt]	3	–
CCCN(CCC)C1CCc2cccc(C(=O)CC(C)C)c2C1 (stereo not drawn) [Example 6, 2-Di-n-propylamino-8-(β-methylbutyryl)-1,2,3,4-tetrahydronaphthalene,hydrobromide salt]	0.4	–
CCCN(CCC)C1CCc2cccc(C(=O)C(C)(C)C)c2C1 (stereo not drawn) [Example 7, 2-Di-n-propylamino-8-dimethylpropionyl-1,2,3,4-tetrahydronaphthalene, hydrobromide salt]	–	9
CCCN(CCC)C1CCc2cccc(C(=O)C3CCCCC3)c2C1 (stereo not drawn) [Example 8, 2-Di-n-propylamino-8-cyclohexanecarbonyl-1,2,3,4-tetrahydronaphthalene, oxalate salt]	0.5	–
CCCN(CCC)C1CCc2cccc(C(=O)COC)c2C1 (stereo not drawn) [Example 12, 2-Di-n-propylamino-8-(methoxyacetyl)-1,2,3,4-tetrahydronaphthalene oxalate]	5.8	–
CCCN(CCC)C1CCc2cccc(C(=O)c3ccccc3)c2C1 (stereo not drawn) [Example 9, 2-Di-n-propylamino-8-benzoyl-1,2,3,4-tetrahydronaphthalene, tosylate salt]	3.7	–
CCCCC(=O)c1cccc2c1CC(N(CCC)CCC)CC2 (stereo not drawn) [Example 1, 2-Di-n-propylamino-8-pentanoyl-1,2,3,4-tetrahydronaphthalene, oxalate salt]	2.2	–
CCCN(CCC)C1CCc2cccc(C(C)=O)c2C1 (stereo not drawn) [Example 13, 2-Di-n-propylamino-8-acetyl-1,2,3,4-tetrahydronaphthalene]	0.8	–
CCCN(CCC)C1CCc2cccc(C(=O)C(F)(F)F)c2C1 (stereo not drawn) [Example 2, 2-Di-n-propylamino-8-trifluoroacetyl-1,2,3,4-tetrahydronaphthalene, hydrobromide salt]	29	–
